# From patent US9353107B2 (Aurigene Discovery Technologies Limited, priority 2012, dated 2016)
# Counter-ions that a name gives are not always drawn.
# Biological target: T1, recombinant human ALK enzyme (ALK WT) (Homo sapiens, UniProt Q9UM73)
# T1 construct: purchased Carna Biosciences 08-518
# Test: ALK WT cell free enzymatic assay (TR-FRET)
# Format: biochemical
# Conditions: 1 μM ATP; for inhibition at 0.1 µM: compound at 100 nM; for inhibition at 0.1 µM / inhibition at 1 µM: 30 min pre-incubation; for inhibition at 1 µM: compound at 1 μM; for IC50: 10 point dose response
# Experimental: ALK Wild Type (WT) The ALK WT cell free assay was set up to evaluate the effects of these compounds as inhibitors of ALK enzyme. The enzymatic assay was standardized using recombinant human ALK enzyme (Cat#08-518) from Carna Biosciences using Ultra Light Poly GT (Cat# TRF 0100D) from Perkin Elmer as a substrate. TR-FRET (Time resolved fluorescence resonance energy transfer) detection technology was used for the read out. The final assay conditions were 50 mM HEPES pH 7.1, 10 mM MgCl2, 2 mM MnCl2, 0.01% BSA, 2.5 mM DTT, 0.1 mM Na3 VO4, 40 nM Ultra Light Poly GT, 2.5 ng ALK WT enzyme, 1 μM ATP and 125 nM Lance Eu-W1024 labeled anti phospho tyrosine antibody (Cat# AD0203, Perkin Elmer) in 384 well format. The assay reaction time with the substrate was 30 minutes after which the antibody detection mix is added. The TR-FRET signal (Excitation at 340 nm, Emission at 615 nm and 665 nm) was read with 50 μs delay time on Victor^3 V fluorimeter. The data is calculated using the ratio of reading at 665 nM to 615 nM. The final concentration of DMSO was 1% in the assay. Compounds were screened at 100 nM and 1 μM concentrations with pre-incubation of the enzymes with compound for 30 minutes. Each individual IC50 was determined using 10 point dose response curve generated by GraphPad Prism software Version 4 (San Diego, Calif., USA) using non linear regression curve fit for sigmoidal dose response (variable slope). Percentage inhibition at concentrations of 100 nM and 1.0 μM are given in table along with the IC50 (nM) details for selected examples.
# T1 sequence (Q9UM73 1058-1620 limits assumed): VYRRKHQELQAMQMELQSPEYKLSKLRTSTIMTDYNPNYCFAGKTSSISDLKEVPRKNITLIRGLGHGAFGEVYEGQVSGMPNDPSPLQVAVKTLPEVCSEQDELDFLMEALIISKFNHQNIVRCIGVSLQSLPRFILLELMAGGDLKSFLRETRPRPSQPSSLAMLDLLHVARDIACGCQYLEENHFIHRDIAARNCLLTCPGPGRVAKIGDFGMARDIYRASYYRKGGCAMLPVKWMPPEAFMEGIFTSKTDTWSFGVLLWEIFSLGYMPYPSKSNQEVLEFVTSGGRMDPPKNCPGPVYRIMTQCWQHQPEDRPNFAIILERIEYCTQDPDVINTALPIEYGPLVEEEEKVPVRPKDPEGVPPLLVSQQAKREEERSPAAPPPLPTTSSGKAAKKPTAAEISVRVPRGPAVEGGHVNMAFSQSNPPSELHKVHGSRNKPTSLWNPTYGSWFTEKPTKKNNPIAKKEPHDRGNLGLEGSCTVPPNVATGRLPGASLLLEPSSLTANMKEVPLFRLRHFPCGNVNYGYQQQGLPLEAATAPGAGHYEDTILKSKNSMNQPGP
SMILES,inhibition at 0.1 µM [%],inhibition at 1 µM [%],IC50 [nM]
"COc1cc(-c2cnc3[nH]cc(-c4cnn(Cc5cccc(F)c5)c4)c3c2)ccc1NS(C)(=O)=O [Example 68, N-(4-(3-(1-(3-fluorobenzyl)-1H-pyrazol-4-yl)-1H-pyrrolo[2,3-b]pyridin-5-yl)-2-methoxyphenyl) methanesulfonamide]",70,93,–
"Cc1cccc(Cn2nc(C)c(-c3c[nH]c4ncc(-c5ccc(N6CCNCC6)cc5)cc34)c2C)c1 [Example 51, 3-(3,5-dimethyl-1-(3-methylbenzyl)-1H-pyrazol-4-yl)-5-(4-(piperazin-1-yl)phenyl)-1H-pyrrolo[2,3-b]pyridine hydrochloride]",84,100,< 50
"Cc1nn(Cc2cccc(F)c2)cc1-c1c[nH]c2ncc(-c3cccc(N4CCNCC4)c3)cc12 [Example 37, 3-(1-(3-fluorobenzyl)-3-methyl-1H-pyrazol-4-yl)-5-(3-(piperazin-1-yl)phenyl)-1H-pyrrolo[2,3-b]pyridine]",93,98,< 50
"Cc1nn(Cc2cccc(F)c2)c(C)c1-c1c[nH]c2ncc(-c3cccc(N4CCNCC4)c3)cc12 [Example 38, 3-(1-(3-fluorobenzyl)-3,5-dimethyl-1H-pyrazol-4-yl)-5-(3-(piperazin-1-yl)phenyl)-1H-pyrrolo[2,3-b]pyridine]",87,99,< 50
"C[C@H](O)CN1CCN(c2ccc(-c3cnc4[nH]cc(-c5cnn(Cc6cccc(F)c6)c5)c4c3)cn2)CC1 [Example 138, (S)-1-(4-(5-(3-(1-(3-fluorobenzyl)-1H-pyrazol-4-yl)-1H-pyrrolo[2,3-b]pyridin-5-yl)pyridin-2-yl)piperazin-1-yl)propan-2-ol]",100,100,< 50
"COc1ccc(-c2cnc3[nH]cc(-c4cnn(Cc5cccc(F)c5)c4)c3c2)cc1NS(C)(=O)=O [Example 13, N-(5-(3-(1-(3-fluorobenzyl)-1H-pyrazol-4-yl)-1H-pyrrolo[2,3-b]pyridin-5-yl)-2-methoxyphenyl) methane sulfonamide]",–,96,< 50
"Cc1nn(Cc2cccc(F)c2)c(C)c1-c1c[nH]c2ncc(-c3ccc(OCCCO)c(NS(C)(=O)=O)c3)cc12 [Example 25, N-(5-(3-(1-(3-fluorobenzyl)-3,5-dimethyl-1H-pyrazol-4-yl)-1H-pyrrolo[2,3-b]pyridin-5-yl)-2-(3-hydroxypropoxyl)phenyl)methanesulfonamide]",86,93,< 50
"CNS(=O)(=O)c1cc(-c2cnc3[nH]cc(-c4c(C)nn(Cc5cc(F)ccc5F)c4C)c3c2)ccc1OC [Example 20, 5-(3-(1-(2,5-difluorobenzyl)-3,5-dimethyl-1H-pyrazol-4-yl)-1H-pyrrolo[2,3-b]pyridin-5-yl)-2-methoxy-N-methylbenzenesulfonamide]",17,75,> 250
"CC(C)(C)OC(=O)N1CCN(c2cccc(-c3cnc4[nH]cc(-c5cnn(Cc6cc(F)ccc6F)c5)c4c3)c2)CC1 [Example 31, tert-butyl 4-(3-(3-(1-(2,5-difluorobenzyl)-1 h-pyrazol-4-yl)-1 h-pyrrolo[2,3-b]pyridin-5-yl)phenyl)piperazine-1-carboxylate]",–,55,> 250
"Cc1nn(Cc2cc(F)cc(F)c2)c(C)c1-c1c[nH]c2ncc(-c3ccc(F)c(NS(C)(=O)=O)c3)cc12 [Example 80, N-(5-(3-(1-(3,5-difluorobenzyl)-3,5-dimethyl-1H-pyrazol-4-yl)-1H-pyrrolo[2,3-b]pyridin-5-yl)-2-fluorophenyl)methanesulfonamide]",65,93,50 to 250
"O=C(CO)N1CCN(c2ccc(-c3cnc4[nH]cc(-c5cnn(Cc6cccc(F)c6)c5)c4c3)cn2)CC1 [Example 154, 1-(4-(5-(3-(1-(3-fluorobenzyl)-1H-pyrazol-4-yl)-1H-pyrrolo[2,3-b]pyridin-5-yl)pyridin-2-yl)piperazin-1-yl)-2-hydroxyethanone]",99,100,< 50
"COCCN1CCN(c2ccc(-c3cnc4[nH]cc(-c5cnn(Cc6cccc(F)c6)c5)c4c3)cn2)CC1 [Example 149, 3-(1-(3-fluorobenzyl)-1H-pyrazol-4-yl)-5-(6-(4-(2-methoxyethyl)piperazin-1-yl)pyridin-3-yl)-1H-pyrrolo[2,3-b]pyridine]",95,100,< 50
"Cc1nn(Cc2cccc(F)c2)c(C)c1-c1c[nH]c2ncc(-c3ccc(N4CCOCC4)cc3)cc12 [Example 45, 4-(4-(3-(1-(3-fluorobenzyl)-3,5-dimethyl-1H-pyrazol-4-yl)-1H-pyrrolo[2,3-b]pyridin-5-yl)phenyl) morpholine]",51,80,50 to 250
"C[C@H](O)CN1CCCN(c2ccc(-c3cnc4[nH]cc(-c5cnn(Cc6cccc(F)c6)c5)c4c3)cc2)CC1 [Example 164, (S)-1-(4-(4-(3-(1-(3-fluorobenzyl)-1H-pyrazol-4-yl)-1H-pyrrolo[2,3-b]pyridin-5-yl)phenyl)-1,4-diazepan-1-yl)propan-2-ol]",96,99,< 50
"NC(=O)N1CCN(c2ccc(-c3cnc4[nH]cc(-c5cnn(Cc6cccc(F)c6)c5)c4c3)cc2)CC1 [Example 108, 4-(4-(3-(1-(3-fluorobenzyl)-1H-pyrazol-4-yl)-1H-pyrrolo[2,3-b]pyridin-5-yl)phenyl)piperazine-1-carboxamide]",97,100,< 50
"CS(=O)(=O)Nc1cccc(-c2cnc3[nH]cc(-c4cnn(Cc5cccc([N+](=O)[O-])c5)c4)c3c2)c1 [Example 7, N-(3-(3-(1-(3-nitrobenzyl)-1H-pyrazol-4-yl)-1H-pyrrolo[2,3-b]pyridin-5-yl)phenyl)methane sulfonamide]",20,53,–
"C[C@@H](O)CN1CCN(c2ncc(-c3cnc4[nH]cc(-c5cnn(Cc6cccc(F)c6)c5)c4c3)cc2F)CC1 [Example 180, (R)-1-(4-(3-fluoro-5-(3-(1-(3-fluorobenzyl)-1H-pyrazol-4-yl)-1H-pyrrolo[2,3-b]pyridin-5-yl)pyridin-2-yl)piperazin-1-yl)propan-2-ol]",93,100,< 50
"COc1ccc(-c2cnc3[nH]cc(-c4cnn(Cc5cc(F)cc(F)c5)c4)c3c2)cc1NS(C)(=O)=O [Example 71, N-(5-(3-(1-(3,5-difluorobenzyl)-1H-pyrazol-4-yl)-1H-pyrrolo[2,3-b]pyridin-5-yl)-2-methoxyphenyl)methanesulfonamide]",94,100,< 50
"COc1ncc(-c2cnc3[nH]cc(-c4cnn(Cc5cccc(F)c5)c4)c3c2)cc1N [Example 65, 5-(3-(1-(3-fluorobenzyl)-1H-pyrazol-4-yl)-1H-pyrrolo[2,3-b]pyridin-5-yl)-2-methoxypyridin-3-amine]",97,100,< 50
